Source: patent US20200071667A1, “COMPOSITION COMPRISING GLYCYRRHIZIN FOR INDUCING DIFFERENTIATION INTO MYELOID-DERIVED SUPPRESSOR CELL FROM MYELOID CELL” (Konkuk University Glocal Industry-Academic Collabo, priority 2018, published 2020)

Tests used:
T cells = experiment: T cell activity measurement by CFSE analysis with glycyrrhizin-induced CD11b+Gr1 myeloid cells as stimulator cells; assay type: cell-based, mouse; details: stimulator cells from 300 μg/ml glycyrrhizin, 48 hours; responder:stimulator 1:1, 1:2, 1:4; 3 days
Method: Specifically, mouse myeloid cells were obtained in the same manner as in Example <2-2>, treated with 300 μg/ml of glycyrrhizin, and then cultured for 48 hours. Subsequently, CD11b+Gr1 myeloid cells induced to be differentiated were stained and separated with FACSAria to be used as stimulator cells, and for responder cells, T cells were isolated with FACSAria from splenocytes of mice of the control of Example 1 and stained with CFSE. The responder cells and the stimulator cells were treated with CD3 and CD28, which induce the activity of T cells, at a ratio of 1:1, 1:2, or 1:4 and further cultured for 3 days.

[1] = system: myeloid cells having a phenotype of CD31+; experiment: Myeloid cell proliferation after glycyrrhizin treatment without LPS stimulation; assay type: cell-based, mouse; details: 100, 200 or 300 μg/ml; cultured 48 hours; without stimulation by LPS
Method: It was examined whether myeloid cells are capable of proliferating even when treated with glycyrrhizin alone without stimulation of the myeloid cells with LPS.
Specifically, myeloid cells having a phenotype of CD31+ were isolated from mouse myeloid cells obtained in the same manner as in Example 2-2. The myeloid cells were treated with glycyrrhizin at a concentration of 100 μg/ml, 200 μg/ml, or 300 μg/ml, and then cultured for 48 hours. As a control, the myeloid cells were treated with 0.1 ml of PBS. Subsequently, the expression level of myeloid cells was examined by the same flow cytometric analysis as that used in Example <2-1>.

iNOS = iNOS measurement by RT-PCR in glycyrrhizin-treated myeloid cells; assay type: cell-based, mouse; details: 100, 200 or 300 μg/ml, cultured 48 hours, vs negative control
Method: Specifically, myeloid cells were isolated from mice of the control of Example 1, treated with glycyrrhizin at a concentration of 100 μg/ml, 200 μg/ml, or 300 μg/ml, and then cultured for 48 hours. Thereafter, RT-PCR was performed. As a negative control, the myeloid cells were treated with 0.1 ml of PBS, and GAPDH was used as an expression control.

mouse myeloid cells = experiment: Differentiation into CD11b+Gr1 myeloid cells by glycyrrhizin concentration and culture time, flow cytometric analysis; assay type: cell-based; details: for expression level of CD11b+Gr1 myeloid cells: 300 μg/ml
Method: Flow cytometric analysis was performed to determine whether the concentration of glycyrrhizin with which myeloid cells were treated or culture time affects differentiation into CD11b+Gr1 myeloid cells from myeloid cells.
Specifically, mouse myeloid cells were obtained in the same manner as in Example <2-2>, treated with glycyrrhizin at a concentration of 100 μg/ml, 200 μg/ml, or 300 μg/ml, and then cultured for 24 hours or 48 hours. As a control, the myeloid cells were treated with 0.1 ml of PBS. Subsequently, the expression level of the myeloid cells was examined by the same flow cytometric analysis as that used in Example <2-1>.

CC1(C)[C@@H](O[C@H]2O[C@H](C(=O)O)[C@@H](O)[C@H](O)[C@H]2O[C@@H]2O[C@H](C(=O)O)[C@@H](O)[C@H](O)[C@H]2O)CC[C@]2(C)[C@H]3C(=O)C=C4[C@@H]5C[C@@](C)(C(=O)O)CC[C@]5(C)CC[C@@]4(C)[C@]3(C)CC[C@@H]12 [glycyrrhizin, ammonium glycyrrhizinate]
activity of T cells (T cells): the higher the proportion of the stimulator cells (CD11b+Gr1 myeloid cells), the lower the activity of T cells
proliferation of the myeloid cells [1]: increased in a manner dependent upon the concentration of glycyrrhizin
expression level of iNOS (iNOS): increased in a concentration-dependent manner
expression level of CD11b+Gr1 myeloid cells (mouse myeloid cells; cultured 24 hours (control 9.10%)): 29.5%
expression level of CD11b+Gr1 myeloid cells (mouse myeloid cells; cultured 48 hours (control 10.8%)): 53.1%
expression level of CD11b+Gr1 myeloid cells, concentration dependence (mouse myeloid cells; 100, 200 or 300 μg/ml, cultured 24 hours): increased in a concentration-dependent manner
